According to patent US8257928B2, “Methods for predicting and treating tumors resistant to drug, immunotherapy and radiation” (The Regents of the University of California, priority 2008, dated 2012):

Tested on: HMT3522 T4-2 cells
Test: Affymetrix U133A 2.0 gene expression profiling of T4-2 N-CoR2 cells vs T4-2 vector cells grown on rBM;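 further: total RNA converted to biotin-labelled cRNA, hybridized to arrays and confocally scanned, probe set intensities computed by GC-RMA, genes kept if flagged present in at least 2 of 8 samples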
Type: cell-based, human
Details: T4-2 N-CoR2 cells on rBM, 6 days
Method: HMT3522 T4-2 cells were derived from an epidermal growth factor (EGF)-dependent breast epithelial HMT3522 S-1 cells and an EGF-independent HMT3522 S-2 cells that spontaneously became malignant when injected into nude mice. HMT3522 T4-2 cells were propagated as monolayers on type I collagen-coated plastic surface in chemically defined medium consisting of DMEM:F12 medium (Invitrogen GIBCO), containing 250 ng/ml insulin (Boehringer Mannheim), 10 μg/ml transferrin (Sigma, St. Louis, Mo.), 2.6 ng/ml sodium splenetic (Collaborative Research), 10^−10 M estradiol (Sigma), 1.4×10^−6 M hydrocortisone (Collaborative Research), and 5 μg/ml prolactin (Sigma), as described in J. Cell Biol. 137:231-245 (1997).
Amphotropic retrovirus was produced in modified 293 cells or in Phoenix ampho cells (provided by Professor G. Nolan, Stanford Medical Center) with packaging vectors pCgp and pVSVG to boost viral titer. […] Sorted cells were expanded again in the presence of tetracycline.
To increase the yield of RNA for transcriptional profiling experiments, we grew 2×10^5 cells on top of rBM in a 60-mm tissue culture dish. As described, cells grown on top of rBM formed 3D cellular aggregates similar to those embedded in rBM. […] The cultures were maintained for 6 days before the collection of RNA samples.
Total RNA was extracted from monolayer culture or 3D culture by a modified TR1 reagent procedure as described (Biotechniques 19:942-945 (1995)) and purified using an RNeasy Mini Kit (Qiagen). Gene expression analysis was performed on an Affymetrix Human Genome U133A 2.0 GeneChip platform containing 22,283 probes according to the manufacturer's protocol (Affymetrix). Twenty micrograms of total RNA from each sample was processed to produce biotinylated cRNA targets. After hybridization, washing and staining arrays were scanned using a confocal scanner (Affymetrix). The hybridization intensity data was processed using the GeneChip Operating software (Affymetrix). Affymetrix .cel files (probe intensity files) were processed with ArrayAssist Lite (v3.4, Stratagene). The files were imported and processed with the GC-RMA algorithm to yield probe set intensities and additionally, Affymetrix Preset, Absent, Marginal flags were computed. These values were exported in .chp files, which were subsequently imported into the Partek Genomics Suite software (v6.2, Partek). The genes were filtered based on the Affymetrix P/A/M flags to retain only those genes that were present in at least 2 of the 8 samples.

N-CoR2 was tested, and the “MEAN INTENSITY (N) 33304_at ISG20” value was 482.12, the “MEAN INTENSITY (N) 38037_at HBEGF” value was 361.24 and the “MEAN INTENSITY (N) 38043_at FAM3A” value was 68.61. The “MEAN INTENSITY (N) 53991_at DENND2A” value was 20.60, the “MEAN INTENSITY (N) 200696_s_at GSN” value was 914.82 and the “MEAN INTENSITY (N) 200821_at LAMP2” value was 347.91. The “MEAN INTENSITY (N) 200914_x_at KTN1” value was 343.43, the “MEAN INTENSITY (N) 201007_at HADHB” value was 7136.54 and the “MEAN INTENSITY (N) 201132_at HNRPH2” value was 143.04. The “MEAN INTENSITY (N) 201215_at PLS3” value was 411.68, the “MEAN INTENSITY (N) 201472_at VBP1” value was 161.81 and the “MEAN INTENSITY (N) 201540_at FHL1” value was 1059.88. The “MEAN INTENSITY (N) 201661_s_at ACSL3” value was 24.61, the “MEAN INTENSITY (N) 201864_at GDI1” value was 358.31 and the “MEAN INTENSITY (N) 201865_x_at NR3C1” value was 332.55. The “MEAN INTENSITY (N) 201887_at IL13RA1” value was 93.97, the “MEAN INTENSITY (N) 201917_s_at SLC25A36” value was 28.72 and the “MEAN INTENSITY (N) 201996_s_at SPEN” value was 72.47. The “MEAN INTENSITY (N) 202169_s_at AASDIIPPT” value was 25.30, the “MEAN INTENSITY (N) 202277_at SPTLC1” value was 110.99 and the “MEAN INTENSITY (N) 202351_at ITGAV” value was 510.51. For the same substance, the “MEAN INTENSITY (N) 202371_at TCEAL4” value was 269.43, the “MEAN INTENSITY (N) 202376_at SERPINA3” value was 196.67 and the “MEAN INTENSITY (N) 202378_s_at LEPROT” value was 228.55. The “MEAN INTENSITY (N) 202411_at IFI27” value was 155.11, the “MEAN INTENSITY (N) 202439_s_at IDS” value was 270.52 and the “MEAN INTENSITY (N) 202602_s_at HTATSF1” value was 79.70. The “MEAN INTENSITY (N) 202829_s_at SYBL1” value was 38.13, the “MEAN INTENSITY (N) 202923_s_at GCLC” value was 167.13 and the “MEAN INTENSITY (N) 203042_at LAMP2” value was 638.66. For the same substance, the “MEAN INTENSITY (N) 203156_at AKAP11” value was 21.24, the “MEAN INTENSITY (N) 203186_s_at S100A4” value was 227.62 and the “MEAN INTENSITY (N) 203303_at DYNLT3” value was 44.35. The “MEAN INTENSITY (N) 203453_at SCNN1A” value was 142.26, the “MEAN INTENSITY (N) 203780_at EVA1” value was 133.29 and the “MEAN INTENSITY (N) 203821_at HBEGF” value was 977.38. The “MEAN INTENSITY (N) 203917_at CXADR” value was 71.25, the “MEAN INTENSITY (N) 204020_at PURA” value was 200.32 and the “MEAN INTENSITY (N) 204097_s_at RBMX2” value was 21.99. For the same substance, the “MEAN INTENSITY (N) 204343_at ABCA3” value was 38.38, the “MEAN INTENSITY (N) 204351_at S100P” value was 180.28 and the “MEAN INTENSITY (N) 204533_at CXCL10” value was 24.04. The “MEAN INTENSITY (N) 204584_at L1CAM” value was 327.45, the “MEAN INTENSITY (N) 204602_at DKK1” value was 259.47 and the “MEAN INTENSITY (N) 204881_s_at UGCG” value was 120.86. For the same substance, the “MEAN INTENSITY (N) 204976_s_at AMMECR1” value was 36.28, the “MEAN INTENSITY (N) 204981_at SLC22A18” value was 205.14 and the “MEAN INTENSITY (N) 205097_at SLC26A2” value was 85.76. The “MEAN INTENSITY (N) 205128_x_at PTGS1” value was 125.00, the “MEAN INTENSITY (N) 205220_at GPR109B” value was 645.95 and the “MEAN INTENSITY (N) 205315_s_at SNTB2” value was 87.78. The “MEAN INTENSITY (N) 205363_at BBOX1” value was 120.76, the “MEAN INTENSITY (N) 205428_s_at CALB2” value was 143.13 and the “MEAN INTENSITY (N) 205569_at LAMP3” value was 64.51. The “MEAN INTENSITY (N) 205595_at DSG3” value was 177.64, the “MEAN INTENSITY (N) 205623_at ALDH3A1” value was 77.90 and the “MEAN INTENSITY (N) 205709_s_at CDS1” value was 42.93. The “MEAN INTENSITY (N) 205767_at EREG” value was 183.71, the “MEAN INTENSITY (N) 205809_s_at WASL” value was 77.44 and the “MEAN INTENSITY (N) 205900_at KRT1” value was 95.82. For the same substance, the “MEAN INTENSITY (N) 206295_at IL18” value was 188.27, the “MEAN INTENSITY (N) 206342_x_at IDS” value was 267.58 and the “MEAN INTENSITY (N) 206645_s_at NR0B1” value was 107.59. For the same substance, the “MEAN INTENSITY (N) 207719_x_at CEP170” value was 21.69, the “MEAN INTENSITY (N) 207941_s_at RNPC2” value was 78.71 and the “MEAN INTENSITY (N) 208241_at NRG1” value was 18.19. The “MEAN INTENSITY (N) 209022_at STAG2” value was 24.13, the “MEAN INTENSITY (N) 209028_s_at ABI1” value was 109.59 and the “MEAN INTENSITY (N) 209194_at CETN2” value was 187.44. The “MEAN INTENSITY (N) 209289_at NFIB” value was 64.90, the “MEAN INTENSITY (N) 209726_at CA11” value was 105.08 and the “MEAN INTENSITY (N) 209792_s_at KLK10” value was 505.96. For the same substance, the “MEAN INTENSITY (N) 210367_s_at PTGES” value was 246.35, the “MEAN INTENSITY (N) 210387_at HIST1H2BG” value was 579.17 and the “MEAN INTENSITY (N) 211122_s_at CXCL11” value was 12.87. For the same substance, the “MEAN INTENSITY (N) 211343_s_at COL13A1” value was 88.75, the “MEAN INTENSITY (N) 211612_s_at IL13RA1” value was 104.96 and the “MEAN INTENSITY (N) 211671_s_at NR3C1” value was 263.10. The “MEAN INTENSITY (N) 212007_at UBXD2” value was 117.00, the “MEAN INTENSITY (N) 212221_x_at IDS” value was 571.11 and the “MEAN INTENSITY (N) 212223_at IDS” value was 186.65. The “MEAN INTENSITY (N) 212414_s_at SEPT6” value was 68.28, the “MEAN INTENSITY (N) 212415_at SEPT6” value was 11.03 and the “MEAN INTENSITY (N) 212510_at GPD1L” value was 22.53. For the same substance, the “MEAN INTENSITY (N) 212531_at LCN2” value was 420.45, the “MEAN INTENSITY (N) 212605_s_at” value was 41.36 and the “MEAN INTENSITY (N) 212616_at CHD9” value was 17.34. For the same substance, the “MEAN INTENSITY (N) 212622_at TMEM41B” value was 26.02, the “MEAN INTENSITY (N) 212640_at PTPLB” value was 459.88 and the “MEAN INTENSITY (N) 213016_at” value was 34.12. The “MEAN INTENSITY (N) 213083_at SLC35D2” value was 234.84, the “MEAN INTENSITY (N) 213135_at TIAM1” value was 24.42 and the “MEAN INTENSITY (N) 213229_at DICER1” value was 464.53. For the same substance, the “MEAN INTENSITY (N) 213294_at” value was 18.29, the “MEAN INTENSITY (N) 213593_s_at TRA2A” value was 34.25 and the “MEAN INTENSITY (N) 213729_at PRPF40A” value was 15.54. For the same substance, the “MEAN INTENSITY (N) 214022_s_at IFITM1” value was 4135.74, the “MEAN INTENSITY (N) 214112_s_at CXorf40A” value was 479.14 and the “MEAN INTENSITY (N) 214718_at GATAD1” value was 33.09. The “MEAN INTENSITY (N) 214722_at NOTCH2NL” value was 159.38, the “MEAN INTENSITY (N) 215206_at EXT1” value was 106.70 and the “MEAN INTENSITY (N) 215245_x_at FMR1” value was 78.43. The “MEAN INTENSITY (N) 215813_s_at PTGS1” value was 76.88, the “MEAN INTENSITY (N) 216095_x_at MTMR1” value was 318.26 and the “MEAN INTENSITY (N) 216942_s_at CD58” value was 34.65. For the same substance, the “MEAN INTENSITY (N) 217388_s_at KYNU” value was 634.02, the “MEAN INTENSITY (N) 217813_s_at SPIN” value was 59.32 and the “MEAN INTENSITY (N) 217947_at CMTM6” value was 498.31. For the same substance, the “MEAN INTENSITY (N) 217948_at” value was 706.40, the “MEAN INTENSITY (N) 217975_at WBP5” value was 441.28 and the “MEAN INTENSITY (N) 218053_at PRPF40A” value was 132.43. For the same substance, the “MEAN INTENSITY (N) 218085_at CHMP5” value was 84.03, the “MEAN INTENSITY (N) 218086_at NPDC1” value was 330.55 and the “MEAN INTENSITY (N) 218163_at MCTS1” value was 521.74. The “MEAN INTENSITY (N) 218237_s_at SLC38A1” value was 608.07, the “MEAN INTENSITY (N) 218668_s_at RAP2C” value was 54.25 and the “MEAN INTENSITY (N) 218986_s_at FLJ20035” value was 29.34. The “MEAN INTENSITY (N) 219001_s_at WDR32” value was 26.25, the “MEAN INTENSITY (N) 219010_at C1orf106” value was 585.64 and the “MEAN INTENSITY (N) 219045_at RHOF” value was 540.25. For the same substance, the “MEAN INTENSITY (N) 219351_at TRAPPC2” value was 71.62, the “MEAN INTENSITY (N) 219356_s_at CHMP5” value was 242.88 and the “MEAN INTENSITY (N) 219956_at GALNT6” value was 147.85. For the same substance, the “MEAN INTENSITY (N) 219995_s_at FLJ13841” value was 795.33, the “MEAN INTENSITY (N) 221553_at RP11-217II1.1” value was 90.64 and the “MEAN INTENSITY (N) 221581_s_at LAT2” value was 163.24. The “MEAN INTENSITY (N) 221766_s_at FAM46A” value was 25.10, the “MEAN INTENSITY (N) 221829_s_at TNPO1” value was 213.54 and the “MEAN INTENSITY (N) 221841_s_at KLF4” value was 264.55. For the same substance, the “MEAN INTENSITY (N) 221844_x_at” value was 96.74, the “MEAN INTENSITY (N) 222242_s_at KLK5” value was 26.38 and the “MEAN INTENSITY (N) 222266_at C19orf2” value was 25.69.
